In patent publication US12616711B2, “Therapeutic dendrimer” (Starpharma Pty Ltd, priority 2019, dated 2026):

Tests used:
Experiment in all cases: alamarBlue viability assay, GI50
A549 cells = type: cell-based, human; details: 72 h, given in μM Gemcitabine
Procedure: (§1) A study was carried out to determine the ability of example dendrimers to inhibit growth of cancer cell lines using an alamarBlue viability assay (Thermo Fisher, DAL1025).
(§2) The cytotoxicity of compounds toward MDA-MB-231, A549, H460, BxPC3 and CAPAN-1 cells were evaluated for viability. Cells were seeded at a density of 1.2-5×10^3 cells, dependent on cell growth rate, in 96 well plates and incubated overnight. Cells were then treated with serial dilutions of test compositions for 72 h (MDA-MB-231, A549 and H460 lines) or 144 h (BxPC3 and CAPAN-1 lines). For cell viability analysis, 10% media volume of alamar Blue was added during the final 6-8 h of incubation. Reduction of alamarBlue in living cells yields a red fluorescent metabolite that can be read on a plate reader (560 nm excitation/610 nm emission.). Cell viability and subsequent GI50 values were was determined from the blank corrected dose-response curves, with 4-parameter nonlinear curve fit, in GraphPad Prism.

CAPAN-1 cells = type: cell-based, human; details: 144 h, given in μM Gemcitabine
Procedure: as §1, §2

BxPC3 cells = type: cell-based; details: BxPC-3; 144 h; given in μM Gemcitabine
Procedure: as §1, §2

H460 cells = type: cell-based; details: 72 h, given in μM Gemcitabine
Procedure: as §1, §2

[BHA Lys][Lys]30[Lys]32 [Compound 3, [BHA Lys][Lys]30[Lys]32 [(α-NH-TDA-Gemcitabine)32 (ε-NHPEG˜2100)32]]
GI50 (A549 cells): 0.05 µM
GI50 (CAPAN-1 cells): 0.008 µM
GI50 (BxPC3 cells): 0.008 µM
GI50 (H460 cells): 0.077 µM
